Here are results for 28 compounds from patent US20260226020A1, “Nav 1.7 AND/OR Nav 1.8 BLOCKING HYDRAZIDES, PROCESSES FOR THE PREPARATION THEREOF, COMPOSITIONS, USES, METHODS OF TREATMENT USING SAME AND KITS” (Eurofarma Laboratórios S.A., priority 2023, published 2026).

The term IC50 denotes the point on the concentration scale where inhibition reaches its midpoint.

Where only a bound is given, the exact number is not on record here.

Assay [1] addresses T1, human sodium channels Nav 1.8 (Homo sapiens, UniProt Q9Y5Y9).
T1 construct: expressed in transfected cells
As to the kind of experiment: Automated whole-cell voltage-clamp (ScreenPatch 384P) sodium current block in CHO cells expressing Nav 1.8. It is filed as cell-based. The settings on record: CHO cells stably expressing human Nav 1.8; whole cell patch clamp, inactivation step -40 mV 8 s, test step 10 mV (TP1A), room temperature; mean where tested in two or more assays; read-out: Nav1.8 IC50. The protocol: (§1) Biological assays were performed on Chinese hamster ovary (CHO) cells that express human sodium channels Nav 1.8 or Nav 1.7 in a stable manner.
(§2) The experimental protocol voltage-clamp using the whole cell configuration was established on the automated ScreenPatch© 384P platform (SP384PE, Nanion Technologies, Livingston, NJ) and the results were recorded with a Nanion 384-well Patch Clamp chip (NPC) (Nanion Technologies, Livingston, NJ).
(§3) Formula I compounds were diluted in eight concentrations in the extracellular solution composed of saline saline solution, buffered with HEPES (mM): NaCl, 137; KCl, 4; CaCl2, 3.8; MgCl2, 1; HEPES, 10; Glucose, 10; pH 7.4. The […], 50; CsF, 90; MgCl2, 5; EGTA, 5; HEPES, 10; pH 7.2. The duration of exposure of each compound with cells expressing Nav 1.7 or Nav 1.8 was at least five minutes, and the assays were performed at room temperature.
(§4) The measurements of the sodium currents of Nav 1.8 and Nav 1.7 were obtained using the voltage protocol described below.
(§5) A holding voltage of −100 mV was established followed by an inactivation voltage step at −40 mV for 8 seconds, followed by a step of −100 mV for 20 ms, followed by a 20 ms step for 10 mV for Nav 1.8 or 0 mV for Nav 1.7 (TP1A) before returning to the holding voltage of −100 mV.
(§6) The protocol was repeated at a frequency of 0.05 Hz and the amplitude of the current was quantified throughout the recording of the TP1A phase. The variation in the amplitude of the peak current was evaluated according to the formula described below, after exposing the cells expressing the channels to each concentration of the different compounds:
(§7) wherein ITP1A,basal and ITP1A,molecule represent the peaks of sodium current input into TP1A before exposure to the compound and in the presence of the compound, respectively.
(§8) The decrease in the amplitude of the peak current, after the exposure of the cells to the compounds, was used to calculate the percentage of relative blockage of the channels in relation to the positive control according to the formula below: […]
(§9) wherein % V and % CP represent the means of the values of current inhibition with a vehicle (DMSO) and positive controls, respectively. The sodium currents of the positive control were considered as 100%.
(§10) wherein [Test] represents the concentration of the molecule evaluated, CI50 is the concentration of the compound that generates half of the maximum inhibition, N is the Hill coefficient, and % Block′ is the percentage of sodium channel current (Nav 1.8 and Nav 1.7) blocked at each concentration of the molecule evaluated. Data were obtained by nonlinear regression (nonlinear least squares) with XLfit for Excel (Microsoft, Redmond, WA).
(§11) The compounds were tested in at least one assay to obtain the value of CI50. For compounds that were tested in two or more assays, the results are described as the means of the CI50 values.
(Patch clamp records ionic current or voltage across a cell membrane.)

Assay [2] addresses T2, human sodium channels Nav 1.7 (Homo sapiens, UniProt Q15858).
T2 construct: expressed in transfected cells
The assay can be described thus: Automated whole-cell voltage-clamp (ScreenPatch 384P) sodium current block in CHO cells expressing Nav 1.7. The format is cell-based. To be noted: CHO cells stably expressing human Nav 1.7; whole cell patch clamp, inactivation step -40 mV 8 s, test step 0 mV (TP1A), room temperature; mean where tested in two or more assays; read-out: Nav1.7 IC50. The protocol: as §1, §2, §3, §4, §5, §6, §7, §8, §9, §10, §11

T1 sequence (Q9Y5Y9 whole entry): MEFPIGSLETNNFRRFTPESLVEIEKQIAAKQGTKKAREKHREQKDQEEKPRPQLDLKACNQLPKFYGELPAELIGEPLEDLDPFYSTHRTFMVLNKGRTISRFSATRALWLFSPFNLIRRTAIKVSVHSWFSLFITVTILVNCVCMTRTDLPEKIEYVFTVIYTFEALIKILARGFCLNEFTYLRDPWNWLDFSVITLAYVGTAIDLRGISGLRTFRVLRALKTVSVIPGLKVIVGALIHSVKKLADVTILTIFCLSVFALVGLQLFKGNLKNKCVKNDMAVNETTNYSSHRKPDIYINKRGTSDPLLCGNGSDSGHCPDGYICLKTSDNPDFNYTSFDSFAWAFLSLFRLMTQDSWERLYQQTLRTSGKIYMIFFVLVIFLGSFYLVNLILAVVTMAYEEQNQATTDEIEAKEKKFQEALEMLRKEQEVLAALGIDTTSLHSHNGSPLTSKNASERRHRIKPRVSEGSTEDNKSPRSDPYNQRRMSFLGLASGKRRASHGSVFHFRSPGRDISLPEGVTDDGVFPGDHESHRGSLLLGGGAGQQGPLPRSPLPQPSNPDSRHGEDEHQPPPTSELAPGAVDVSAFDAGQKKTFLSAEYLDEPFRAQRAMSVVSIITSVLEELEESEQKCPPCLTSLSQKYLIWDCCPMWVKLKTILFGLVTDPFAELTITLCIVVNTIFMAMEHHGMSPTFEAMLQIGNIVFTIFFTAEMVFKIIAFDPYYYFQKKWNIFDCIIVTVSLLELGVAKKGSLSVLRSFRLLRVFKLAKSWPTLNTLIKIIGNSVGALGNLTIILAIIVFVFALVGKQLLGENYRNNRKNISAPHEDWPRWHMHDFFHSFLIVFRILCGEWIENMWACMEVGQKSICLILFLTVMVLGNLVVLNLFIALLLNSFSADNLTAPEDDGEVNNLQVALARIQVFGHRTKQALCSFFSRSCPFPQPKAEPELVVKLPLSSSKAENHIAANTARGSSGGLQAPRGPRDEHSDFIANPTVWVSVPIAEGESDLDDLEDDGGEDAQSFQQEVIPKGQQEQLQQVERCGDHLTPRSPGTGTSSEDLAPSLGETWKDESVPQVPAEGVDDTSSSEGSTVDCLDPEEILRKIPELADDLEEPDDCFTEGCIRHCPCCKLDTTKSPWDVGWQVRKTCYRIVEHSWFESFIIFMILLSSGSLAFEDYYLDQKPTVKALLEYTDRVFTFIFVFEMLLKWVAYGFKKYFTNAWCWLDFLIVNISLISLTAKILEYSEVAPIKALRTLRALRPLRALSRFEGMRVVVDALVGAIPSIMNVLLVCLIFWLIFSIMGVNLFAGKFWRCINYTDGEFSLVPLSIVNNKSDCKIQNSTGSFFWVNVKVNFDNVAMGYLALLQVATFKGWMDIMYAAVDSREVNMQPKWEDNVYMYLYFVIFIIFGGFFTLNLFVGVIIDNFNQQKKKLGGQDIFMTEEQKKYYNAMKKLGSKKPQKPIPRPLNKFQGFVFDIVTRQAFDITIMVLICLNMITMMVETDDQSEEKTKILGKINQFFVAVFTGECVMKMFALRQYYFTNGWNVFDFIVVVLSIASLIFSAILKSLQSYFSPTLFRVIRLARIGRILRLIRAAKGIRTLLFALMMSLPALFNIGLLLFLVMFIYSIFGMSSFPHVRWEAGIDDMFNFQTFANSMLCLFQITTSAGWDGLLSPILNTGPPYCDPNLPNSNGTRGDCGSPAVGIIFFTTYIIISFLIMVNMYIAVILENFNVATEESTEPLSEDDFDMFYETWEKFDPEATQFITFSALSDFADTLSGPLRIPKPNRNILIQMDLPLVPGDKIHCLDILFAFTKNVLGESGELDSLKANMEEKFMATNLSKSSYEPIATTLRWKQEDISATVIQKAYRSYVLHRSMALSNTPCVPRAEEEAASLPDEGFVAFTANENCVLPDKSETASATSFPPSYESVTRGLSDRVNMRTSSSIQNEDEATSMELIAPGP
T2 sequence (Q15858 whole entry): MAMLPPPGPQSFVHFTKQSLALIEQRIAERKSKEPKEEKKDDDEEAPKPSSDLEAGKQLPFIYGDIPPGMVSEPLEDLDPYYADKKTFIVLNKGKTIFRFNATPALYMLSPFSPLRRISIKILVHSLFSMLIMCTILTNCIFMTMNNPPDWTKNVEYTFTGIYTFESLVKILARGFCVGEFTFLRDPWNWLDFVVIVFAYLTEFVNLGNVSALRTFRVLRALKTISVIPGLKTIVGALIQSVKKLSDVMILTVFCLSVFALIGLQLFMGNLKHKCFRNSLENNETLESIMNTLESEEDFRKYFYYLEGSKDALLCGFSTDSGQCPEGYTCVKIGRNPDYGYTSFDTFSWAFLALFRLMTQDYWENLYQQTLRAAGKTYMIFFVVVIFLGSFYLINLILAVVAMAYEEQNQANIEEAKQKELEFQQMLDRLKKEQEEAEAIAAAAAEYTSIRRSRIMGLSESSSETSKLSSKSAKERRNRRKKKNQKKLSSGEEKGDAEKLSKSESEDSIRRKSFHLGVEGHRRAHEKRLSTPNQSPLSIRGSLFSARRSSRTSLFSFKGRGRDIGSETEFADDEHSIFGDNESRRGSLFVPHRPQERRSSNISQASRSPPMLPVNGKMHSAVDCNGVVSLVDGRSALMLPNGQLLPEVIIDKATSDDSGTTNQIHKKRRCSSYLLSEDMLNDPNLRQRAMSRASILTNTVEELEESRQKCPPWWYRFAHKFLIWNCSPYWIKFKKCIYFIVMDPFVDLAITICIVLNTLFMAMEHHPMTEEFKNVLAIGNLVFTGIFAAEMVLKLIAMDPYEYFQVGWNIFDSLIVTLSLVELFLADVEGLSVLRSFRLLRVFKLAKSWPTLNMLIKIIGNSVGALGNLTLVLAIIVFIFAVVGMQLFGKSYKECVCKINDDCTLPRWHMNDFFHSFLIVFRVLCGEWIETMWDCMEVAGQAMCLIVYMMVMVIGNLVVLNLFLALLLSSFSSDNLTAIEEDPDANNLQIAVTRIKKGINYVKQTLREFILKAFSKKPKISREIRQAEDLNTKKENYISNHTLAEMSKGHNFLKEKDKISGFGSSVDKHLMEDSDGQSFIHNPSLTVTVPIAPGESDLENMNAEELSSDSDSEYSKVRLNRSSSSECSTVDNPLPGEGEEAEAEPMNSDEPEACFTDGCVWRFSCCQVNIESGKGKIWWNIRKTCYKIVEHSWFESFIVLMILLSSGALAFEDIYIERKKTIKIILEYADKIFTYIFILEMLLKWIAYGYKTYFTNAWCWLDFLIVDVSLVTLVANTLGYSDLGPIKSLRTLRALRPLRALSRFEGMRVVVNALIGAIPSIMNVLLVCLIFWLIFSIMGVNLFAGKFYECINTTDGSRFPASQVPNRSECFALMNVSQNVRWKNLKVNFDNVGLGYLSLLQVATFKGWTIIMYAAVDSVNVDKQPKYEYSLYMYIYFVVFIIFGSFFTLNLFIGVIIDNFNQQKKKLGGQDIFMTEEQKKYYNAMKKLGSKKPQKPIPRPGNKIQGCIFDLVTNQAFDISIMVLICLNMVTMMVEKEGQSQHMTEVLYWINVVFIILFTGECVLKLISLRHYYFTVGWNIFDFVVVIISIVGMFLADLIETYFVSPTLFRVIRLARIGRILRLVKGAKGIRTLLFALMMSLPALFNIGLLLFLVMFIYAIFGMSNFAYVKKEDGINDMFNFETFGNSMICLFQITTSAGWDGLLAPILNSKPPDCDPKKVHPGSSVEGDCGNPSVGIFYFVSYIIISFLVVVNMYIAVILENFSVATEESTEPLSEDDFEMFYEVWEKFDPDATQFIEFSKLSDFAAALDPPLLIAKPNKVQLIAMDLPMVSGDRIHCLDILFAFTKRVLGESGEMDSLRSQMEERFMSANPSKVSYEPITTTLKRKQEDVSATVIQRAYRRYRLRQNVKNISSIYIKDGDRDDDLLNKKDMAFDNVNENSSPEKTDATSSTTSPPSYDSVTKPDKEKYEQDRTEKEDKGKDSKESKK

With `CCOc1ccc(-c2cncc(C(=O)NN[C@@H](C)c3cc(OC)cc(OC)c3)n2)cc1` (single isomer, unassigned) [Compound 24], the IC50 in assay [1] and in assay [2] was > 1000 nM throughout.
With `CCOc1ccc(-c2cncc(C(=O)NN[C@H](C)c3cc(OC)cc(OC)c3)n2)cc1` (single isomer, unassigned) [Compound 25], the IC50 in assay [1] was 500 to 1000 nM; in assay [2], > 1000 nM.
With `COc1ccc(-c2cncc(C(=O)NNCc3cc(OC)cc(OC)c3)n2)cc1` [Compound 1, N′-(3,5-dimethoxybenzyl)-6-(4-methoxyphenyl)pyrazine-2-carbohydrazide], the results for the IC50 in assay [1] and in assay [2] were 500 to 1000 nM and > 1000 nM, respectively.
In the same order, the values of `COc1ccc(-c2cncc(C(=O)NNCc3ccc(Cl)cc3)n2)cc1` [Compound 2, N′-(4-chlorobenzyl)-6-(4-methoxyphenyl)pyrazine-2-carbohydrazide] are > 1000 nM and > 1000 nM.
The like results for `COc1cc(CNNC(=O)c2cncc(-c3ccc(OC(C)C)cc3)n2)cc(OC)c1` [Compound 3, N′-(3,5-dimethoxybenzyl)-6-(4-isopropoxyphenyl)pyrazine-2-carbohydrazide] were, in that order, < 500 nM and > 1000 nM.
The like results for `O=C(NNCc1ccc(Cl)cc1)c1cncc(-c2ccc(OC3CC3)cc2)n1` [Compound 4, N′-(4-chlorobenzyl)-6-(4-cyclopropoxyphenyl)pyrazine-2-carbohydrazide] were, in that order, > 1000 nM and > 1000 nM.
On to `O=C(NNCc1ccc(Cl)cc1)c1cncc(-c2ccc(Cl)cc2)n1` [Compound 5, N′-(4-chlorobenzyl)-6-(4-chlorophenyl)pyrazine-2-carbohydrazide], for which the IC50 in assay [1] and in assay [2] was > 1000 nM each time.
For the compound `O=C(NN1CCc2cc(Cl)ccc2C1)c1cncc(-c2ccc(Cl)cc2)n1` [Compound 6, N-(6-chloro-3,4-dihydroisoquinoline-2 (1H)-yl)-6-(4-chlorophenyl)pyrazine-2-carboxamide], the IC50 in assay [1] and in assay [2] was > 1000 nM throughout.
In the case of `COc1cc(CNNC(=O)c2cncc(-c3ccc(OC(F)F)cc3)n2)cc(OC)c1` [Compound 7, 6-(4-(difluoromethoxy)phenyl)-N′-(3,5-dimethoxybenzyl)pyrazine-2-carbohydrazide], the IC50 is 500 to 1000 nM in assay [1] and > 1000 nM in assay [2].
As to `COc1cc(CNNC(=O)c2cncc(-c3ccc(OC(F)F)nc3)n2)cc(OC)c1` [Compound 8, 6-(6-(difluoromethoxy)pyridin-3-yl)-N′-(3,5-dimethoxybenzyl)pyrazine-2-carbohydrazide], the IC50 in assay [1] is < 500 nM; in assay [2], > 1000 nM.
As to `CCOc1ccc(-c2cncc(C(=O)NNCc3ccc(Cl)cc3)n2)cc1` [Compound 9, N′-(4-chlorobenzyl)-6-(4-ethoxyphenyl)pyrazine-2-carbohydrazide], the half-inhibitory concentration (IC50) in assay [1] and in assay [2] was > 1000 nM each time.
`CCOc1ccc(-c2cncc(C(=O)NNCc3cc(OC)cc(OC)c3)n2)cc1` [Compound 10, N′-(3,5-dimethoxybenzyl)-6-(4-ethoxyphenyl)pyrazine-2-carbohydrazide]: the IC50 was < 500 nM in assay [1] and 500 to 1000 nM in assay [2].
As to `CCOc1ccc(-c2cncc(C(=O)NN3CCCc4ccc(OC)cc4C3)n2)cc1` [Compound 11, 6-(4-ethoxyphenyl)-N-(8-methoxy-1,3,4,5-tetrahydro-2H-benzo[c]azepin-2-yl)pyrazine-2-carboxamide], the IC50 in assay [1] and in assay [2] was > 1000 nM each time.
Consider `CCOc1ccc(-c2cncc(C(=O)NN3CCOc4ccc(OC)cc4C3)n2)cc1` [Compound 12, 6-(4-ethoxyphenyl)-N-(7-methoxy-2,3-dihydrobenzo[f][1,4]oxazepine-4(5H)-yl)pyrazine-2-carboxamide], for which the concentration for half-maximal inhibition (IC50) in assay [1] and in assay [2] was > 1000 nM each time.
As for `CCOc1ccc(-c2cncc(C(=O)NN3Cc4ccc(OC)cc4C3)n2)cc1` [Compound 13, 6-(4-ethoxyphenyl)-N-(5-methoxyisoindolin-2-yl)pyrazine-2-carboxamide], the IC50 in assay [1] is < 500 nM; in assay [2], > 1000 nM.
In the same order, the values of `CCOc1ccc(-c2cncc(C(=O)NNCc3cc(OC)ccc3C)n2)cc1` [Compound 14, 6-(4-ethoxyphenyl)-N′-(5-methoxy-2-methylbenzyl)pyrazine-2-carbohydrazide] are < 500 nM and > 1000 nM.
Turning to `CCOc1ccc(-c2cncc(C(=O)NNCc3cc(OC)ccc3F)n2)cc1` [Compound 15, 6-(4-ethoxyphenyl)-N′-(2-fluoro-5-methoxybenzyl)pyrazine-2-carbohydrazide], the half-maximal inhibitory concentration (IC50) was < 500 nM in assay [1] and > 1000 nM in assay [2].
Consider `CCOc1ccc(-c2cncc(C(=O)NNCc3cccc(OC)c3)n2)cc1` [Compound 16, 6-(4-ethoxyphenyl)-N′-(3-methoxybenzyl)pyrazine-2-carbohydrazide], for which the results for the IC50 in assay [1] and in assay [2] were < 500 nM and > 1000 nM, respectively.
The like results for `CCOc1ccc(-c2cncc(C(=O)NN(C)Cc3cc(OC)cc(OC)c3)n2)cc1` [Compound 17, N′-(3,5-dimethoxybenzyl)-6-(4-ethoxyphenyl)-N′-methylpyrazine-2-carbohydrazide] were, in that order, > 1000 nM and > 1000 nM.
Regarding `CCOc1ccc(-c2cncc(C(=O)NNCc3cc(OC)cnc3C)n2)cc1` [Compound 18, 6-(4-ethoxyphenyl)-N′-((5-methoxy-2-methylpyridin-3-yl)methyl)pyrazine-2-carbohydrazide], the results for the half-maximal inhibitory concentration (IC50) in assay [1] and in assay [2] were < 500 nM and > 1000 nM, respectively.
Regarding `CCOc1ccc(-c2cncc(C(=O)NNCc3ccccc3F)n2)cc1` [Compound 22, 6-(4-ethoxyphenyl)-N′-(2-fluorobenzyl)pyrazine-2-carbohydrazide], the IC50 in assay [1] is < 500 nM; in assay [2], > 1000 nM.
For the compound `CCOc1ccc(-c2cncc(C(=O)NNCc3cc(OC)cnc3F)n2)cc1` [Compound 26, 6-(4-ethoxyphenyl)-N′-((2-fluoro-5-methoxypyridin-3-yl)methyl)pyrazine-2-carbohydrazide], the IC50 is 500 to 1000 nM in assay [1] and > 1000 nM in assay [2].
Take `CCOc1ccc(-c2cncc(C(=O)NNCc3cc(OC)cc(OC)c3)n2)c(F)c1` [Compound 27, N′-(3,5-dimethoxybenzyl)-6-(4-ethoxy-2-fluorophenyl)pyrazine-2-carbohydrazide]: the values for the IC50 in assay [1] and in assay [2] were < 500 nM and > 1000 nM, respectively.
Consider `CCOc1ccc(-c2cncc(C(=O)NNCc3cc(OC)cc(OC)c3)n2)c(C)c1` [Compound 28, N′-(3,5-dimethoxybenzyl)-6-(4-ethoxy-2-methylphenyl)pyrazine-2-carbohydrazide], for which the IC50 in assay [1] was < 500 nM; in assay [2] it was > 1000 nM.
In the same order, the values of `CCOc1ccc(-c2cncc(C(=O)NNCc3cc(OC)cc(OC)c3)n2)cn1` [Compound 29, N′-(3,5-dimethoxybenzyl)-6-(6-ethoxypyridin-3-yl)pyrazine-2-carbohydrazide] are 500 to 1000 nM and > 1000 nM.
With `CCOc1ccc(-c2cncc(C(=O)NNCc3cccc(OC)c3)n2)cn1` [Compound 30, 6-(6-ethoxypyridin-3-yl)-N′-(3-methoxybenzyl)pyrazine-2-carbohydrazide], the half-maximal inhibitory concentration (IC50) was < 500 nM in assay [1] and > 1000 nM in assay [2].
In the same order, the values of `CCOc1ccc(-c2cncc(C(=O)NNCc3cc(OC)cnc3F)n2)cn1` [Compound 31, 6-(6-ethoxypyridin-3-yl)-N′-((2-fluoro-5-methoxypyridin-3-yl)methyl)pyrazine-2-carbohydrazide] are > 1000 nM and > 1000 nM.
On to `CCOc1ccc(-c2cncc(C(=O)NNCc3cc(OC)ccc3F)n2)cn1` [Compound 32, 6-(6-ethoxypyridin-3-yl)-N′-(2-fluoro-5-methoxybenzyl)pyrazine-2-carbohydrazide], for which the IC50 in assay [1] is < 500 nM; in assay [2] it was > 1000 nM.
